Like-named read-outs stand apart in the source and are kept apart here.
How the values were obtained:
[1] = Biodistribution of 177Lu-labeled αMSH analogues in mice bearing B16F10 mouse melanoma; type: in vivo, C57BL/6J mice; conditions: mouse, iv, total radioactivity, C57BL/6J mice, B16F10 melanoma
Experimental: (§1) The B16-F10 mouse melanoma cells were cultured and inoculated in mice as described in Example 1.
(§2) For biodistribution studies, approximately 1-2 MBq of ^177Lu-labeled αMSH analogues via tail vein under anesthesia. At 1, 4, 24, and 120 h p.i., the mice were euthanized by CO2 inhalation. Organs/tissues were harvested and the radioactivity was measured as described in Example 1.

B16F10 mouse melanoma [2] = assay: as above; type: in vivo, C57BL/6J mice; conditions: C57BL/6J mice, B16F10 melanoma
Experimental: as §1, §2

B16F10 mouse melanoma [3] = assay: SPECT/CT imaging of mice bearing B16F10 mouse melanoma; type: in vivo, C57BL/6J mice; conditions: 24 h p.i.
Experimental: SPECT/CT imaging experiments were conducted using a preclinical U-SPECT-II/CT scanner (MILabs). For SPECT scans, each tumour-bearing mouse was injected with approximately 37 MBq of ^177Lu-labeled αMSH analogues via tail vein under anesthesia. After the injection, mice were allowed to recover and roam freely in their cages. At 1, 4, 24, and 120 h p.i., the mice were sedated again with 2% isoflurane inhalation and positioned in the scanner, and kept warm by a heating pad. A 3 min CT scan was conducted to acquire anatomical information, followed by a 60 min static emission scan in list mode with an extra ultrahigh-sensitivity multipinhole mouse collimator. The images were reconstructed using the ordered subset expectation maximization algorithm (4 iterations, 32 subsets) and a 1 mm post-processing Gaussian filter. The radioactivity in the SPECT scans were decay corrected to the injection time in the PMOD software, and converted to DICOM for quantitation and visualization in the Inveon Research Workplace software (Siemens). SPECT images of all six αMSH analogues radiolabeled with ^177Lu in mice bearing B16F10 mouse melanoma at 24 h p.i. are showing in FIG. 5. […] The sustained tumour uptake is particularly beneficial for radioligand therapy.

SK-MEL-1 human melanoma = assay: SPECT/CT imaging of mice bearing SK-MEL-1 human melanoma; type: in vivo, NRG mice; conditions: 24 h p.i.
Experimental: SPECT/CT imaging experiments were conducted using the same conditions as described in Example 3. […] (FIG. 6).

tissue uptake at 1 h ([1]; male, seminal glands, 1 h p.i., read-out: Biodistribution, Seminal glands): 0.5 ± 0.11 %ID/g | tissue uptake at 4 h ([1]; male, seminal glands, 4 h p.i., read-out: Biodistribution, Seminal glands): 0.15 ± 0.06 %ID/g | tissue uptake at 24 h ([1]; male, seminal glands, 24 h p.i., read-out: Biodistribution, Seminal glands): 0.04 ± 0.01 %ID/g | tissue uptake at 120 h ([1]; male, seminal glands, 120 h p.i., read-out: Biodistribution, Seminal glands): 0.02 ± 0.01 %ID/g | tissue uptake at 1 h ([1]; male, testes, 1 h p.i., read-out: Biodistribution, Testes): 1.07 ± 0.11 %ID/g | tissue uptake at 4 h ([1]; male, testes, 4 h p.i., read-out: Biodistribution, Testes): 0.4 ± 0.14 %ID/g | tissue uptake at 24 h ([1]; male, testes, 24 h p.i., read-out: Biodistribution, Testes): 0.16 ± 0.02 %ID/g | tissue uptake at 120 h ([1]; male, testes, 120 h p.i., read-out: Biodistribution, Testes): 0.1 ± 0.01 %ID/g | tissue uptake at 1 h ([1]; adrenal glands, 1 h p.i., read-out: Biodistribution, Adrenal glands): 2.9 ± 1.51 %ID/g | tissue uptake at 4 h ([1]; adrenal glands, 4 h p.i., read-out: Biodistribution, Adrenal glands): 0.54 ± 0.48 %ID/g | tissue uptake at 24 h ([1]; adrenal glands, 24 h p.i., read-out: Biodistribution, Adrenal glands): 0.2 ± 0.09 %ID/g | tissue uptake at 120 h ([1]; adrenal glands, 120 h p.i., read-out: Biodistribution, Adrenal glands): 0.18 ± 0.06 %ID/g | tissue uptake at 1 h ([1]; blood, 1 h p.i., read-out: Biodistribution, Blood): 6.87 ± 0.88 %ID/g | tissue uptake at 4 h ([1]; blood, 4 h p.i., read-out: Biodistribution, Blood): 1.41 ± 0.6 %ID/g | tissue uptake at 24 h ([1]; blood, 24 h p.i., read-out: Biodistribution, Blood): 0.05 ± 0.02 %ID/g | tissue uptake at 120 h ([1]; blood, 120 h p.i., read-out: Biodistribution, Blood): 0.01 %ID/g | tissue uptake at 1 h ([1]; bone, 1 h p.i., read-out: Biodistribution, Bone): 0.96 ± 0.18 %ID/g | tissue uptake at 4 h ([1]; bone, 4 h p.i., read-out: Biodistribution, Bone): 0.29 ± 0.11 %ID/g | tissue uptake at 24 h ([1]; bone, 24 h p.i., read-out: Biodistribution, Bone): 0.13 ± 0.03 %ID/g | tissue uptake at 120 h ([1]; bone, 120 h p.i., read-out: Biodistribution, Bone): 0.12 ± 0.04 %ID/g | tissue uptake at 1 h ([1]; brain, 1 h p.i., read-out: Biodistribution, Brain): 0.13 ± 0.01 %ID/g | tissue uptake at 4 h ([1]; brain, 4 h p.i., read-out: Biodistribution, Brain): 0.03 ± 0.02 %ID/g | tissue uptake at 24 h ([1]; brain, 24 h p.i., read-out: Biodistribution, Brain): 0.01 %ID/g | tissue uptake at 120 h ([1]; brain, 120 h p.i., read-out: Biodistribution, Brain): 0.01 %ID/g | tissue uptake at 1 h ([1]; fat, 1 h p.i., read-out: Biodistribution, Fat): 0.43 ± 0.08 %ID/g | tissue uptake at 4 h ([1]; fat, 4 h p.i., read-out: Biodistribution, Fat): 0.12 ± 0.03 %ID/g | tissue uptake at 24 h ([1]; fat, 24 h p.i., read-out: Biodistribution, Fat): 0.03 ± 0.01 %ID/g | tissue uptake at 120 h ([1]; fat, 120 h p.i., read-out: Biodistribution, Fat): 0.02 ± 0.01 %ID/g | tissue uptake at 1 h ([1]; heart, 1 h p.i., read-out: Biodistribution, Heart): 1.93 ± 0.16 %ID/g | tissue uptake at 4 h ([1]; heart, 4 h p.i., read-out: Biodistribution, Heart): 0.45 ± 0.19 %ID/g | tissue uptake at 24 h ([1]; heart, 24 h p.i., read-out: Biodistribution, Heart): 0.08 ± 0.01 %ID/g | tissue uptake at 120 h ([1]; heart, 120 h p.i., read-out: Biodistribution, Heart): 0.05 %ID/g | tissue uptake at 1 h ([1]; intestine, 1 h p.i., read-out: Biodistribution, Intestine): 1.2 ± 0.2 %ID/g | tissue uptake at 4 h ([1]; intestine, 4 h p.i., read-out: Biodistribution, Intestine): 1.53 ± 2.04 %ID/g | tissue uptake at 24 h ([1]; intestine, 24 h p.i., read-out: Biodistribution, Intestine): 0.21 ± 0.05 %ID/g | tissue uptake at 120 h ([1]; intestine, 120 h p.i., read-out: Biodistribution, Intestine): 0.1 ± 0.04 %ID/g | tissue uptake at 1 h ([1]; kidneys, 1 h p.i., read-out: Biodistribution, Kidneys): 12 ± 0.83 %ID/g | tissue uptake at 4 h ([1]; kidneys, 4 h p.i., read-out: Biodistribution, Kidneys): 12.7 ± 3.58 %ID/g | tissue uptake at 24 h ([1]; kidneys, 24 h p.i., read-out: Biodistribution, Kidneys): 6.32 ± 0.43 %ID/g | tissue uptake at 120 h ([1]; kidneys, 120 h p.i., read-out: Biodistribution, Kidneys): 1.43 ± 0.31 %ID/g | tissue uptake at 1 h ([1]; liver, 1 h p.i., read-out: Biodistribution, Liver): 3.65 ± 0.25 %ID/g | tissue uptake at 4 h ([1]; liver, 4 h p.i., read-out: Biodistribution, Liver): 3.58 ± 0.85 %ID/g | tissue uptake at 24 h ([1]; liver, 24 h p.i., read-out: Biodistribution, Liver): 2.59 ± 0.31 %ID/g | tissue uptake at 120 h ([1]; liver, 120 h p.i., read-out: Biodistribution, Liver): 1.25 ± 0.51 %ID/g | tissue uptake at 1 h ([1]; lungs, 1 h p.i., read-out: Biodistribution, Lungs): 6.71 ± 3.02 %ID/g | tissue uptake at 4 h ([1]; lungs, 4 h p.i., read-out: Biodistribution, Lungs): 2.34 ± 0.63 %ID/g | tissue uptake at 24 h ([1]; lungs, 24 h p.i., read-out: Biodistribution, Lungs): 0.33 ± 0.08 %ID/g | tissue uptake at 120 h ([1]; lungs, 120 h p.i., read-out: Biodistribution, Lungs): 0.14 ± 0.08 %ID/g | tissue uptake at 1 h ([1]; muscle, 1 h p.i., read-out: Biodistribution, Muscle): 0.75 ± 0.09 %ID/g | tissue uptake at 4 h ([1]; muscle, 4 h p.i., read-out: Biodistribution, Muscle): 0.18 ± 0.09 %ID/g | tissue uptake at 24 h ([1]; muscle, 24 h p.i., read-out: Biodistribution, Muscle): 0.03 ± 0.01 %ID/g | tissue uptake at 120 h ([1]; muscle, 120 h p.i., read-out: Biodistribution, Muscle): 0.02 %ID/g | tissue uptake at 1 h ([1]; pancreas, 1 h p.i., read-out: Biodistribution, Pancreas): 1.13 ± 0.24 %ID/g | tissue uptake at 4 h ([1]; pancreas, 4 h p.i., read-out: Biodistribution, Pancreas): 0.31 ± 0.08 %ID/g | tissue uptake at 24 h ([1]; pancreas, 24 h p.i., read-out: Biodistribution, Pancreas): 0.08 ± 0.02 %ID/g | tissue uptake at 120 h ([1]; pancreas, 120 h p.i., read-out: Biodistribution, Pancreas): 0.05 ± 0.01 %ID/g | tissue uptake at 1 h ([1]; spleen, 1 h p.i., read-out: Biodistribution, Spleen): 2.06 ± 0.21 %ID/g | tissue uptake at 4 h ([1]; spleen, 4 h p.i., read-out: Biodistribution, Spleen): 1.02 ± 0.27 %ID/g | tissue uptake at 24 h ([1]; spleen, 24 h p.i., read-out: Biodistribution, Spleen): 0.64 ± 0.09 %ID/g | tissue uptake at 120 h ([1]; spleen, 120 h p.i., read-out: Biodistribution, Spleen): 0.35 ± 0.15 %ID/g | tissue uptake at 1 h ([1]; stomach, 1 h p.i., read-out: Biodistribution, Stomach): 0.74 ± 0.18 %ID/g | tissue uptake at 4 h ([1]; stomach, 4 h p.i., read-out: Biodistribution, Stomach): 2.33 ± 4.11 %ID/g | tissue uptake at 24 h ([1]; stomach, 24 h p.i., read-out: Biodistribution, Stomach): 0.42 ± 0.13 %ID/g | tissue uptake at 120 h ([1]; stomach, 120 h p.i., read-out: Biodistribution, Stomach): 0.2 ± 0.09 %ID/g | tissue uptake at 1 h ([1]; thyroid, 1 h p.i., read-out: Biodistribution, Thyroid): 2.47 ± 0.26 %ID/g | tissue uptake at 4 h ([1]; thyroid, 4 h p.i., read-out: Biodistribution, Thyroid): 1.66 ± 0.42 %ID/g | tissue uptake at 24 h ([1]; thyroid, 24 h p.i., read-out: Biodistribution, Thyroid): 1.59 ± 0.15 %ID/g | tissue uptake at 120 h ([1]; thyroid, 120 h p.i., read-out: Biodistribution, Thyroid): 1.03 ± 0.24 %ID/g | tissue to tissue ratio at 1 h ([1]; tumour/blood, 1 h p.i., read-out: Tumour/blood): 3.58 ± 0.31 | tissue to tissue ratio at 4 h ([1]; tumour/blood, 4 h p.i., read-out: Tumour/blood): 24.3 ± 9.37 | tissue to tissue ratio at 24 h ([1]; tumour/blood, 24 h p.i., read-out: Tumour/blood): 397 ± 123 | tissue to tissue ratio at 120 h ([1]; tumour/blood, 120 h p.i., read-out: Tumour/blood): 339 ± 149 | tissue to tissue ratio at 1 h ([1]; tumour/kidney, 1 h p.i., read-out: Tumour/kidney): 2.04 ± 0.15 | tissue to tissue ratio at 4 h ([1]; tumour/kidney, 4 h p.i., read-out: Tumour/kidney): 2.47 ± 0.8 | tissue to tissue ratio at 24 h ([1]; tumour/kidney, 24 h p.i., read-out: Tumour/kidney): 2.91 ± 0.2 | tissue to tissue ratio at 120 h ([1]; tumour/kidney, 120 h p.i., read-out: Tumour/kidney): 1.89 ± 0.37 | tissue to tissue ratio at 1 h ([1]; tumour/muscle, 1 h p.i., read-out: Tumour/muscle): 32.9 ± 2.98 | tissue to tissue ratio at 4 h ([1]; tumour/muscle, 4 h p.i., read-out: Tumour/muscle): 194 ± 82.7 | tissue to tissue ratio at 24 h ([1]; tumour/muscle, 24 h p.i., read-out: Tumour/muscle): 556 ± 108 | tissue to tissue ratio at 120 h ([1]; tumour/muscle, 120 h p.i., read-out: Tumour/muscle): 173 ± 19 | excreta dose per gram or mL at 1 h ([1]; urine, 1 h p.i.): 158 ± 83.1 %ID/g | excreta dose per gram or mL at 4 h ([1]; urine, 4 h p.i.): 124 ± 8.4 %ID/g | excreta dose per gram or mL at 24 h ([1]; urine, 24 h p.i.): 4.39 ± 2.89 %ID/g | excreta dose per gram or mL at 120 h ([1]; urine, 120 h p.i.): 1.11 ± 0.72 %ID/g | Biodistribution, B16F10 tumour (B16F10 mouse melanoma [2]; 1 h p.i.): 24.4 ± 1.76 % ID/g | Biodistribution, B16F10 tumour (B16F10 mouse melanoma [2]; 4 h p.i.): 29.7 ± 5.23 % ID/g | Biodistribution, B16F10 tumour (B16F10 mouse melanoma [2]; 24 h p.i.): 18.4 ± 1.35 % ID/g | Biodistribution, B16F10 tumour (B16F10 mouse melanoma [2]; 120 h p.i.): 2.63 ± 0.21 % ID/g | Tumour visualization with SPECT imaging (B16F10 mouse melanoma [3]): clearly visualized | Tumour uptake / retention in SPECT images (SK-MEL-1 human melanoma): lower tumour uptake was observed
SMILES: CCCC[C@H](NC(=O)CN1CCC(NC(=O)[C@H](CCCCNC(=O)CN2CCN(CC(=O)O)CCN(CC(=O)O)CCN(CC(=O)O)CC2)NC(=O)[C@H](CCC(=O)O)NC(=O)CCCc2ccc(I)cc2)CC1)C(=O)N[C@H]1CC(=O)NCCCC[C@@H](C(N)=O)N(C)C(=O)[C@H](Cc2c[nH]c3ccccc23)NC(=O)[C@H](CCCNC(=N)N)N(C)C(=O)[C@@H](Cc2ccccc2)NC(=O)[C@H](Cc2c[nH]cn2)NC1=O [^177Lu-labeled CCZ01118, metal not drawn]
